Consider two molecules from PMC6271282, “Playing with Opening and Closing of Heterocycles: Using the Cusmano-Ruccia Reaction to Develop a Novel Class of Oxadiazolothiazinones, Active as Calcium Channel Modulators and P-Glycoprotein Inhibitors” (Molecules, 2014).

Assay [1] addresses T1, L-type Ca2+ channel (LTCC, Cav1.2) (Rattus norvegicus, UniProt P22002).
T1 construct: gene Cacna1c; native channel in single rat tail main artery myocytes
Description: whole-cell patch clamp, IBa(L); also potentiates [3H]diltiazem binding in rat cardiomyocytes ([…]). In kind it is cell-based. A general note: Patch clamp records ionic current or voltage across a cell membrane.

For assay [2], the target named is T1, L-type Ca2+ channel (LTCC, Cav1.2). In words: whole-cell patch clamp, IBa(L). In kind it is cell-based.

The structures appear in SMILES notation.

T1 sequence (P22002 whole entry): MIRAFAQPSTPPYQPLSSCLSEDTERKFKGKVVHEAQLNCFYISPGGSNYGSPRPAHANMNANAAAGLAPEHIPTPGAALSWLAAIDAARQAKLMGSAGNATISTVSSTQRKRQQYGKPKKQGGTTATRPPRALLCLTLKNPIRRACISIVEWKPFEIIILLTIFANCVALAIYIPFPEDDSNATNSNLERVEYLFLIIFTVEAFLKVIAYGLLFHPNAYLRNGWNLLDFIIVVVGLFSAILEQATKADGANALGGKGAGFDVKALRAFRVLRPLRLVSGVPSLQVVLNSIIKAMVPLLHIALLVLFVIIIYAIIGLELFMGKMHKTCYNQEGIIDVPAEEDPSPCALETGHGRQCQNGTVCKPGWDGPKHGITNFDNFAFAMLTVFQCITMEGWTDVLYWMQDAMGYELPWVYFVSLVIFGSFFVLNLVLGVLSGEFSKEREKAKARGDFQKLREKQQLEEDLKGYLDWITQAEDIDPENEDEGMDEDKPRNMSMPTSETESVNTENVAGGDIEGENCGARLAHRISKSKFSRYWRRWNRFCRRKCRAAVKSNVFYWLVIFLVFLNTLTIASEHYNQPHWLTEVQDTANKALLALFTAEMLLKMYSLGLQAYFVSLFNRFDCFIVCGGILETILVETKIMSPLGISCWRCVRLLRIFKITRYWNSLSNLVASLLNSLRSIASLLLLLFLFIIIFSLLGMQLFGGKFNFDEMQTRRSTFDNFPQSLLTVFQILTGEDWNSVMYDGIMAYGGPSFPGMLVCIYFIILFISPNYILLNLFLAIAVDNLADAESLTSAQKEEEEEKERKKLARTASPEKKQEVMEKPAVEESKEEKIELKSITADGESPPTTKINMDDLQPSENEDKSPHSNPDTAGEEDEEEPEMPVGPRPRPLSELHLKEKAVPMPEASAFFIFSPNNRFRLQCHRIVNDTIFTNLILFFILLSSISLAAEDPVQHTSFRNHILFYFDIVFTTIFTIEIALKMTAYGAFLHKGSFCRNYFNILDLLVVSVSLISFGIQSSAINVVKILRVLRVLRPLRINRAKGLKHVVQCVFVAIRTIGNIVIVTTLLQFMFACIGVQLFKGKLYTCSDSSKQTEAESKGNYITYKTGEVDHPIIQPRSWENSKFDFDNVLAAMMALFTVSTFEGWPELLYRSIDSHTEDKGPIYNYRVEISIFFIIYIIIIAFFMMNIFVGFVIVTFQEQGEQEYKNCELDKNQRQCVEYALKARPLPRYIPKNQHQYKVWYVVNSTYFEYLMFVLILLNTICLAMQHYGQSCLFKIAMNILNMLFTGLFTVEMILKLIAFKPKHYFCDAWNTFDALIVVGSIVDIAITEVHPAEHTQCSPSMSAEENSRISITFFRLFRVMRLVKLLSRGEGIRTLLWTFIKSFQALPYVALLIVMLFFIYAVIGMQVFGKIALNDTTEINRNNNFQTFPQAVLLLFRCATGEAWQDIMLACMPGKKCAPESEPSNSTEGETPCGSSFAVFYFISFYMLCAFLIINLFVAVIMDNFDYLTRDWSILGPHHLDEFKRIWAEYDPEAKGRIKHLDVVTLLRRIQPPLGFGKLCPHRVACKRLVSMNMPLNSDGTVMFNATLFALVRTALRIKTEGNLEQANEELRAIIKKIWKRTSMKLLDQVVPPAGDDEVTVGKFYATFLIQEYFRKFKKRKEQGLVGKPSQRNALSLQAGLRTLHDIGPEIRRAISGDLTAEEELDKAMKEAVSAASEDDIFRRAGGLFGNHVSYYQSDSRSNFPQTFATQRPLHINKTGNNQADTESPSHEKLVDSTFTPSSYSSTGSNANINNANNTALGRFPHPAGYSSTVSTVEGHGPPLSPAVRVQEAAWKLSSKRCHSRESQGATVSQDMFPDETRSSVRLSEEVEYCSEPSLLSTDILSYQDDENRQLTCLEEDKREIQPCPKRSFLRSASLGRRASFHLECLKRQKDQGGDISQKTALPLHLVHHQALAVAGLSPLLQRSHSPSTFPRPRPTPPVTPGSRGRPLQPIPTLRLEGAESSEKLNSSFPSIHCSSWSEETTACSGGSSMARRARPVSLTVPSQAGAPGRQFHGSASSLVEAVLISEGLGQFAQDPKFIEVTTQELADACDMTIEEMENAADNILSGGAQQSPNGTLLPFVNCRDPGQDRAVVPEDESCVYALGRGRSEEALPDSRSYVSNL

One may read the IC50 as the concentration needed to halve the response being measured. On to `O=c1onc2n1-c1ccc(Cl)cc1SC2(O)c1ccc(Br)cc1` (centres unmarked) [compound 30, 4-(4-Bromophenyl)-7-chloro-4-hydroxy-4H-[1,2,4]oxadiazolo[3,4-c][1,4]benzothiazin-1-one], for which the IC50 in assay [1] is approximately 3 µM. `CC1=CSC(OCCN2CCCCC2)(c2ccc(Br)cc2)c2noc(=O)n21` (centres unmarked) [compound 32, 8-(4-Bromophenyl)-5-methyl-8-(2-piperidin-1-ylethoxy)-8H-[1,2,4]oxadiazolo[3,4-c][1,4]thiazin-3-one] had an IC50 in assay [2] of approximately 30 µM.
